Earlier results as cited in article PMC9516332 (Frontiers in Oncology, 2022).
Read-outs that look alike come from different tables or passages of the source.

Key:
Conditions in all cases: cited from earlier work
[1] = target: panel of 255 wild-type kinases (Homo sapiens, UniProt Q9Y463)
[2] = target: panel of 255 wild-type kinases (Homo sapiens, UniProt Q9HBH9)
[3] = target: panel of 255 wild-type kinases (Homo sapiens, UniProt Q9UQM7)
[4] = target: panel of 255 wild-type kinases (Homo sapiens, UniProt Q9P0L2)
[5] = target: panel of 255 wild-type kinases (Homo sapiens, UniProt P08922)
[6] = target: panel of 255 wild-type kinases (Homo sapiens, UniProt P49840)
[7] = target: panel of 255 wild-type kinases (Homo sapiens, UniProt P68400)
[8] = target: panel of 255 wild-type kinases (Homo sapiens, UniProt P19784)
[9] = target: panel of 255 wild-type kinases (Homo sapiens, UniProt Q15375)
[10] = target: panel of 255 wild-type kinases (Homo sapiens, UniProt P35968)
[11] = target: T1, panel of 255 wild-type kinases (Homo sapiens, UniProt Q9HBY8)
T1 sequence (Q9HBY8 1-367): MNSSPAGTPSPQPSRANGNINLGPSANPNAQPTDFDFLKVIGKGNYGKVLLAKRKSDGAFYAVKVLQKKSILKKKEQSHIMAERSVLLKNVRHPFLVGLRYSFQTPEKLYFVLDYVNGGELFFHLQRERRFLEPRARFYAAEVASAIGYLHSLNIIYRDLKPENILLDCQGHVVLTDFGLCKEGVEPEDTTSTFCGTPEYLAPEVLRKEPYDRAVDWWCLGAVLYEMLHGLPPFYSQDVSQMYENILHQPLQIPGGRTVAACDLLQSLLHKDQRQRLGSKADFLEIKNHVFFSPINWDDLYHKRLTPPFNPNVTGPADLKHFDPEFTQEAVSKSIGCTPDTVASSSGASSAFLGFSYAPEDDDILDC

[12] = target: panel of 255 wild-type kinases (Homo sapiens, UniProt Q9UK32)
[13] = target: panel of 255 wild-type kinases (Homo sapiens, UniProt P09619)
[14] = target: T2, panel of 255 wild-type kinases (Homo sapiens, UniProt Q12851)
T2 sequence (Q12851 1-820): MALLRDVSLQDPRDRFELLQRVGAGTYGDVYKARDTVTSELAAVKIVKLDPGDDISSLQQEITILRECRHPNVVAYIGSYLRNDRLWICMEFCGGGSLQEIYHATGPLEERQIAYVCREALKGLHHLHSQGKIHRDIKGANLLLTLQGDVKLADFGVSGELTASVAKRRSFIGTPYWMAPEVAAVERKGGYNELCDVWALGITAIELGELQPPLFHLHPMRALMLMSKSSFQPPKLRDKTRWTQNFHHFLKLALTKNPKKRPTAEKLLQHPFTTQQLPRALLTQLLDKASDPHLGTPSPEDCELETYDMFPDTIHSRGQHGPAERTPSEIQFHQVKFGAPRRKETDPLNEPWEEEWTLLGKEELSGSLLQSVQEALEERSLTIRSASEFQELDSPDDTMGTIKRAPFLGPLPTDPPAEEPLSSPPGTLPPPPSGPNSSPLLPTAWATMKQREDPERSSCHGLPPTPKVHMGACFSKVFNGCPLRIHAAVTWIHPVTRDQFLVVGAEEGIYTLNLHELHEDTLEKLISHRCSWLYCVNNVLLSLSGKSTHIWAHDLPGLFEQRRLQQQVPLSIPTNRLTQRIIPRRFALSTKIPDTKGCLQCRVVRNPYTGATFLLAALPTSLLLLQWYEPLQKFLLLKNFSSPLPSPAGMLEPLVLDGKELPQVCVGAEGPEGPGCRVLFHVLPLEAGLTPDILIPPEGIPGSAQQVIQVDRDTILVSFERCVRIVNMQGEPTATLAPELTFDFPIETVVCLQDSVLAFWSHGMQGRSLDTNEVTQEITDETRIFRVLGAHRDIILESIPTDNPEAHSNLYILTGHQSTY

[15] = target: panel of 255 wild-type kinases (Homo sapiens, UniProt P49674)
[16] = kinase DYRK1B, 1 µmol/L single concentration, ref DOI: 10.1158/1535-7163.MCT-18-0877
[17] = MNK2, 1 µmol/L single concentration, ref DOI: 10.1158/1535-7163.MCT-18-0877
[18] = CaMK2α kinase assay, 1 µmol/L single concentration, ref DOI: 10.1158/1535-7163.MCT-18-0877
[19] = MARK1, 1 µmol/L single concentration, ref DOI: 10.1158/1535-7163.MCT-18-0877
[20] = kinase ROS, 1 µmol/L single concentration, ref DOI: 10.1158/1535-7163.MCT-18-0877
[21] = kinase GSK3α, 1 µmol/L single concentration, ref DOI: 10.1158/1535-7163.MCT-18-0877
[22] = kinase CK2α1/β, 1 µmol/L single concentration, ref DOI: 10.1158/1535-7163.MCT-18-0877
[23] = kinase CK2α2/β, 1 µmol/L single concentration, ref DOI: 10.1158/1535-7163.MCT-18-0877
[24] = kinase EPHA7, 1 µmol/L single concentration, ref DOI: 10.1158/1535-7163.MCT-18-0877
[25] = kinase KDR, 1 µmol/L single concentration, ref DOI: 10.1158/1535-7163.MCT-18-0877
[26] = kinase SGK2, 1 µmol/L single concentration, ref DOI: 10.1158/1535-7163.MCT-18-0877
[27] = kinase RSK4, 1 µmol/L single concentration, ref DOI: 10.1158/1535-7163.MCT-18-0877
[28] = kinase PDGFRβ, 1 µmol/L single concentration, ref DOI: 10.1158/1535-7163.MCT-18-0877
[29] = kinase MAP4K2, 1 µmol/L single concentration, ref DOI: 10.1158/1535-7163.MCT-18-0877
[30] = kinase CK1ε, 1 µmol/L single concentration, ref DOI: 10.1158/1535-7163.MCT-18-0877
[31] = kinase DYRK1B, 1 µmol/L single concentration, ref DOI: 10.1371/journal.pone.0092146
[32] = MNK2, 1 µmol/L single concentration, ref DOI: 10.1371/journal.pone.0092146
[33] = CaMK2α kinase assay, 1 µmol/L single concentration, ref DOI: 10.1371/journal.pone.0092146
[34] = MARK1, 1 µmol/L single concentration, ref DOI: 10.1371/journal.pone.0092146
[35] = kinase ROS, 1 µmol/L single concentration, ref DOI: 10.1371/journal.pone.0092146
[36] = kinase GSK3α, 1 µmol/L single concentration, ref DOI: 10.1371/journal.pone.0092146
[37] = kinase CK2α1/β, 1 µmol/L single concentration, ref DOI: 10.1371/journal.pone.0092146
[38] = kinase CK2α2/β, 1 µmol/L single concentration, ref DOI: 10.1371/journal.pone.0092146
[39] = kinase EPHA7, 1 µmol/L single concentration, ref DOI: 10.1371/journal.pone.0092146
[40] = kinase KDR, 1 µmol/L single concentration, ref DOI: 10.1371/journal.pone.0092146
[41] = kinase SGK2, 1 µmol/L single concentration, ref DOI: 10.1371/journal.pone.0092146
[42] = kinase RSK4, 1 µmol/L single concentration, ref DOI: 10.1371/journal.pone.0092146
[43] = kinase PDGFRβ, 1 µmol/L single concentration, ref DOI: 10.1371/journal.pone.0092146
[44] = kinase MAP4K2, 1 µmol/L single concentration, ref DOI: 10.1371/journal.pone.0092146
[45] = kinase CK1ε, 1 µmol/L single concentration, ref DOI: 10.1371/journal.pone.0092146

SMILES | %-inhibition at 1 µmol/L, DYRK1B [1, 16] [%] | %-inhibition, MNK2 [2, 17] [%] | %-inhibition CaMK2α [3, 18] [%] | %-inhibition, MARK1 [4, 19] [%] | %-inhibition at 1 µmol/L, ROS [5, 20] [%] | %-inhibition at 1 µmol/L, GSK3α [6, 21] [%] | %-inhibition at 1 µmol/L, CK2α1/β [7, 22] [%] | %-inhibition at 1 µmol/L, CK2α2/β [8, 23] [%] | %-inhibition at 1 µmol/L, EPHA7 [9, 24] [%] | %-inhibition at 1 µmol/L, KDR [10, 25] [%] | %-inhibition at 1 µmol/L, SGK2 [11, 26] [%] | %-inhibition at 1 µmol/L, RSK4 [12, 27] [%] | %-inhibition at 1 µmol/L, PDGFRβ [13, 28] [%] | %-inhibition at 1 µmol/L, MAP4K2 [14, 29] [%] | %-inhibition at 1 µmol/L, CK1ε [15, 30] [%] | %-inhibition at 1 µmol/L, DYRK1B [1, 31] [%] | %-inhibition, MNK2 [2, 32] [%] | %-inhibition CaMK2α [3, 33] [%] | %-inhibition, MARK1 [4, 34] [%] | %-inhibition at 1 µmol/L, ROS [5, 35] [%] | further results
CC#CC(=O)N1CCC[C@H]1c1nc(-c2ccc(C(=O)Nc3ccccn3)cc2)c2c(N)nccn12 [acalabrutinib] | -19 | 12 | -3.43 | -3.49 | 1.79 | 2.47 | 5.34 | 10 | -3.54 | 7 | -19 | 4.21 | 5.36 | -11 | -10 |  |  |  |  |  | 
COc1cc(N2CCC(N3CCN(C)CC3)CC2)ccc1Nc1ncc(Cl)c(Nc2ccccc2P(C)(C)=O)n1 [brigatinib] |  |  |  |  |  |  |  |  |  |  |  |  |  |  |  |  |  |  |  |  | %-inhibition at 1 µmol/L, DYRK1B [1]: 41%; %-inhibition, MNK2 [2]: 66%; %-inhibition CaMK2α [3]: 86%; %-inhibition, MARK1 [4]: 96%; %-inhibition at 1 µmol/L, ROS [5]: 101%; %-inhibition at 1 µmol/L, GSK3α [6]: 4%; %-inhibition at 1 µmol/L, CK2α1/β [7]: 8.51%; %-inhibition at 1 µmol/L, CK2α2/β [8]: -4%; %-inhibition at 1 µmol/L, EPHA7 [9]: 21%; %-inhibition at 1 µmol/L, KDR [10]: 86%; %-inhibition at 1 µmol/L, SGK2 [11]: -8%; %-inhibition at 1 µmol/L, RSK4 [12]: 98%; %-inhibition at 1 µmol/L, PDGFRβ [13]: 94%; %-inhibition at 1 µmol/L, MAP4K2 [14]: 77%; %-inhibition at 1 µmol/L, CK1ε [15]: 0.661%
CCCS(=O)(=O)Nc1ccc(F)c(C(=O)c2c[nH]c3ncc(-c4ccc(Cl)cc4)cc23)c1F [vemurafenib] |  |  |  |  |  |  |  |  |  |  |  |  |  |  |  | -1.74 | 27 | -4.25 | -9 | 2 | %-inhibition at 1 µmol/L, GSK3α [6, 36]: 25%; %-inhibition at 1 µmol/L, CK2α1/β [7, 37]: -5.39%; %-inhibition at 1 µmol/L, CK2α2/β [8, 38]: -6.56%; %-inhibition at 1 µmol/L, EPHA7 [9, 39]: -0.639%; %-inhibition at 1 µmol/L, KDR [10, 40]: 13%; %-inhibition at 1 µmol/L, SGK2 [11, 41]: 2.66%; %-inhibition at 1 µmol/L, RSK4 [12, 42]: -3%; %-inhibition at 1 µmol/L, PDGFRβ [13, 43]: 33%; %-inhibition at 1 µmol/L, MAP4K2 [14, 44]: 43%; %-inhibition at 1 µmol/L, CK1ε [15, 45]: 2.46%
CCc1cc2c(cc1N1CCC(N3CCOCC3)CC1)C(C)(C)c1[nH]c3cc(C#N)ccc3c1C2=O [alectinib] | 2 | 13 | 0.405 | 8 | 14 | 4.36 | -3.18 | -3 | 1.58 | 18 | -5 | 19 | 26 | 7.56 | 4.48 |  |  |  |  |  | 
CC(=O)Nc1cccc(-n2c(=O)n(C3CC3)c(=O)c3c(Nc4ccc(I)cc4F)n(C)c(=O)c(C)c32)c1 [trametinib] |  |  |  |  |  |  |  |  |  |  |  |  |  |  |  | 3.34 | -11 | -1.65 | -17 | -0.611 | %-inhibition at 1 µmol/L, GSK3α [6, 36]: 1.59%; %-inhibition at 1 µmol/L, CK2α1/β [7, 37]: -3.4%; %-inhibition at 1 µmol/L, CK2α2/β [8, 38]: -5.29%; %-inhibition at 1 µmol/L, EPHA7 [9, 39]: -5%; %-inhibition at 1 µmol/L, KDR [10, 40]: -0.549%; %-inhibition at 1 µmol/L, SGK2 [11, 41]: -7%; %-inhibition at 1 µmol/L, RSK4 [12, 42]: 0.208%; %-inhibition at 1 µmol/L, PDGFRβ [13, 43]: 3.44%; %-inhibition at 1 µmol/L, MAP4K2 [14, 44]: 4%; %-inhibition at 1 µmol/L, CK1ε [15, 45]: -5.38%
